We go through 52 molecules from PubChem BioAssay AID1996.

For orientation: kinetic solubility means the concentration staying in solution when a stock, usually in DMSO, is diluted into the medium.

The structures appear in SMILES notation. Converted amounts (≈) assume the structure as drawn.

For the data set the following is noted: buffer; pH 7.4; 200.0 µM.
`Cc1cc(Br)ccc1N=C1C(=O)Nc2ccccc21`: the solubility (kinetic) worked out at 8 µg/mL (≈ 25.4 µM).

For the molecule `CC(=O)c1ccc(NC(=O)C(C)Nc2ccc(Cl)cc2)cc1` (configuration not stated), the solubility (kinetic) is 40.9 µg/mL (≈ 129 µM).

In turn, `Nc1nc(F)cc(N2CCCCCC2)n1` returned a solubility (kinetic) of over 31.5 µg/mL.

Molecule `CC(C(=O)OCC(=O)NC1CCCC1)N1C(=O)c2ccccc2C1=O` (configuration not stated) displayed a solubility (kinetic) of 50 µg/mL (≈ 145 µM).

On to `Cc1cc(C(=O)NCc2cccc(Cl)c2)c2ccccc2n1`, for which the kinetic solubility amounted to 5.3 µg/mL (≈ 17.1 µM).

`CC1=C([N+](=O)[O-])C(c2ccc(O)c(O)c2)NC(=O)N1` (configuration not stated): the solubility (kinetic) is over 39.8 µg/mL.

`Cc1cc(C)c(OCCN2CCOCC2)c(Cl)c1` registered a solubility (kinetic) of 26.6 µg/mL (≈ 98.6 µM).

`CCCC(=O)NCc1ccncc1` displayed a solubility (kinetic) of over 26.7 µg/mL.

Take `CSc1ccc(Cl)c(C(=O)Nc2cc(S(=O)(=O)N3CCOCC3)ccc2N2CCOCC2)c1`: the solubility (kinetic) came to 3.4 µg/mL (≈ 6.64 µM).

As to `COc1cc(/C(C)=N/N2CCOCC2)cc(OC)c1OC`, the solubility (kinetic) is over 44.2 µg/mL.

`CC(=O)C1C(c2ccc([N+](=O)[O-])cc2)c2c(noc2C)CC1(C)O` (configuration not stated) yielded a kinetic solubility of over 49.6 µg/mL.

In turn, `COC(=O)c1ccc(NC(=O)CNc2ccccc2)cc1` yielded a solubility (kinetic) of 28.3 µg/mL (≈ 99.5 µM).

For `CCOC(=O)Cc1csc(N(C)C)n1`, the solubility (kinetic) is 25.4 µg/mL (≈ 119 µM).

In turn, `Cl.O=C(CCN1CCOCC1)Nc1ccc(Cl)cc1` displayed a kinetic solubility of over 45.8 µg/mL.

In the case of `COc1ccc(CCNCC(=O)Nc2ccc(OC(F)F)cc2)cc1`, the solubility (kinetic) was determined as 34.4 µg/mL (≈ 98.2 µM).

`Cc1cccn2cc(CCNC(=O)c3cccs3)nc12` showed a kinetic solubility of over 42.8 µg/mL.

The molecule `C=CCn1c(O)c(/C=N/NC(=O)c2ccncc2)c(=O)[nH]c1=O` returned a solubility (kinetic) of over 47.3 µg/mL.

`COc1ccc(S(=O)(=O)Nc2ncccn2)cc1` displayed a kinetic solubility of 23.1 µg/mL (≈ 87.1 µM).

On to `Nc1ccccc1Sc1c[nH]c2ccccc12`, for which the kinetic solubility is 27.8 µg/mL (≈ 116 µM).

For the molecule `COc1ccccc1CN(C)C(=O)CN1C(=O)c2ccccc2C1=O`, the kinetic solubility was 17 µg/mL (≈ 50.2 µM).

Molecule `COc1ccc(NC(=O)CN2CCCC2)cc1` yielded a solubility (kinetic) of 34 µg/mL (≈ 145 µM).

The molecule `COc1cccc(CN(C)C(=O)CCC(=O)c2cc(Br)ccc2OC)c1` yielded a solubility (kinetic) of 18.3 µg/mL (≈ 43.5 µM).

In the case of `Nc1ncnc(Oc2cccc(C(F)(F)F)c2)c1[N+](=O)[O-]`, the solubility (kinetic) amounted to 7.6 µg/mL (≈ 25.3 µM).

With `O=S(=O)(NCc1ccco1)c1cnc(Cl)c(Cl)c1`, the solubility (kinetic) was over 46.1 µg/mL.

The molecule `O=S(=O)(NCc1cn2ccccc2n1)c1ccccc1F` returned a kinetic solubility of over 45.8 µg/mL.

The molecule `CCN(C(=O)COC(=O)CCNS(=O)(=O)c1ccccc1F)c1c(N)n(Cc2ccccc2)c(=O)[nH]c1=O` came in with a solubility (kinetic) of over 82.1 µg/mL.

Molecule `CC1CCCC(C)N1C(=O)CSc1nc(N)cc(N)n1` (configuration not stated) registered a solubility (kinetic) of over 44.3 µg/mL.

The molecule `Cc1cc(SCC(=O)Nc2ccc3[nH]c(=O)[nH]c3c2)nc2ccccc12` gave a kinetic solubility of 2.9 µg/mL (≈ 7.96 µM).

Turning to `COc1ccc(C(=O)Nc2cccc(S(=O)(=O)N3CCCC3)c2)cc1S(=O)(=O)N1CCOCC1`, the solubility (kinetic) was found to be 5.3 µg/mL (≈ 10.4 µM).

On to `CSc1ccccc1C(=O)NCCOc1ccccc1C`, for which the solubility (kinetic) was over 45.2 µg/mL.

In turn, `CC(=O)c1cccc(NC(=O)c2ccc(C)o2)c1` yielded a solubility (kinetic) of over 36.5 µg/mL.

`COc1ccc(NC(=O)/C=C/c2cc(OC)c(OC)c(OC)c2)cn1` registered a kinetic solubility of 0.5 µg/mL (≈ 1.45 µM).

Consider `CN(C)S(=O)(=O)c1cccc(C(=O)N2CCN(C(=O)C3CCCO3)CC2)c1` (configuration not stated), for which the kinetic solubility was over 59.3 µg/mL.

Take `CC(C)OP(=O)(c1ccc(N(C)C)cc1)C(O)c1ccc(N(C)C)cc1` (configuration not stated): the kinetic solubility is over 56.5 µg/mL.

`COCCCn1c(=O)c2ccccc2n2c(=S)[nH]nc12` gave a kinetic solubility of over 43.6 µg/mL.

In turn, `O=[N+]([O-])c1ccc(CSc2nc3ncc(Br)cc3[nH]2)cc1` came in with a kinetic solubility of 1.3 µg/mL (≈ 3.56 µM).

`Cn1cnc2c1c(=O)n(Cc1cccc(Cl)c1)c(=O)n2C` had a solubility (kinetic) of over 45.7 µg/mL.

In turn, `FC(c1nc2ccccc2[nH]1)C(F)(F)F` (configuration not stated) gave a kinetic solubility of over 32.7 µg/mL.

Turning to `COCc1c(C(=O)OCc2c(C)noc2C)oc2ccccc12`, the kinetic solubility came to 33.2 µg/mL (≈ 105 µM).

In turn, `N#Cc1ccc(S(=O)(=O)NC2CCN(Cc3ccccc3)CC2)cc1` displayed a solubility (kinetic) of 42.5 µg/mL (≈ 120 µM).

Consider `CC(C)=CC(=O)Nc1ccc(S(=O)(=O)Nc2onc(C)c2C)cc1`, for which the solubility (kinetic) is over 52.4 µg/mL.

`CN1CN=C(NS(=O)(=O)c2ccc([N+](=O)[O-])cc2)NC1` returned a solubility (kinetic) of over 44.9 µg/mL.

`O=[N+]([O-])c1c(NCc2ccco2)ccc2nonc12`: the kinetic solubility amounted to 38.4 µg/mL (≈ 148 µM).

The molecule `CS(=O)(=O)c1ccc(NCCc2ccccn2)c([N+](=O)[O-])c1` registered a solubility (kinetic) of 44.2 µg/mL (≈ 138 µM).

`O=C(CNc1ccccc1Cl)c1ccc(Br)cc1` returned a kinetic solubility of under 0.7 µg/mL.

For the molecule `CN1CCC(N(C)C(=O)Cc2ccccc2[N+](=O)[O-])CC1`, the kinetic solubility is over 43.7 µg/mL.

`Cc1cc(C)nc(SCC(=O)c2ccc(F)cc2F)n1`: the kinetic solubility was over 44.1 µg/mL.

Turning to `COc1ccc(C)cc1S(=O)(=O)N1CC(C)OC(C)C1` (configuration not stated), the kinetic solubility is over 44.9 µg/mL.

Molecule `CCOCCCNCc1cc(Br)ccc1OCC.Cl` registered a kinetic solubility of over 52.9 µg/mL.

Molecule `Cc1noc(C)c1-c1nc(CS(=O)(=O)c2ccc(F)cc2)no1` gave a kinetic solubility of 43.4 µg/mL (≈ 129 µM).

`Cc1cc(C)n2nc(SCC(=O)NC3CCCCC3)nc2n1`: the solubility (kinetic) was over 47.9 µg/mL.

`COC(=O)c1sccc1Oc1ccc(Cl)cc1N1C(=O)CCC1=O` came in with a solubility (kinetic) of 48.5 µg/mL (≈ 133 µM).
